Data: ChEMBL document CHEMBL1201862, “PubChem BioAssay data set” (2004)
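Grown in 96-well plates, cells were treated for 48 hours with each compound at five concentrations. Insufficient inhibition: endpoint recorded as highest concentration tested. GI50 = concentration required for 50% inhibition of growth.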 Calls of active or inactive are those of the source. Rule as the data show it: active = GI50 up to about 1.1 µM and inactive = higher.

Columns and labels:
Assay in all cases: inhibition of tumour cell growth, NCI panel, 48 h
[1] = test system: CCRF-CEM
[2] = test system: NCI-H226
[3] = test system: SNB-75
[4] = test system: OVCAR-4
[5] = test system: BT-549
[6] = test system: OVCAR-8
[7] = test system: SK-MEL-5
[8] = test system: OVCAR-5
[9] = test system: LOX IMVI
[10] = test system: M14
[11] = test system: OVCAR-3
[12] = test system: UACC-257
[13] = test system: HCT-116
[14] = test system: UO-31
[15] = test system: HOP-92
[16] = test system: CAKI-1
[17] = test system: U-251
[18] = test system: NCI/ADR-RES
[19] = test system: MCF7

SMILES | GI50 [1] | GI50 [2] | GI50 [3] | GI50 [4] | GI50 [5] | GI50 [6] | GI50 [7] | GI50 [8] | GI50 [9] | GI50 [10] | GI50 [11] | GI50 [12] | GI50 [13] | GI50 [14] | GI50 [15] | GI50 [16] | GI50 [17] | GI50 [18] | GI50 [19]
N#Cc1ccc(NC(=O)C(CC(=O)OCc2ccccc2)NC(=O)OCc2ccccc2)cc1 (stereo not given) | > 10 µM (inactive) | > 10 µM (inactive) | > 10 µM (inactive) | > 10 µM (inactive) | > 10 µM (inactive) | > 10 µM (inactive) | 92 µM (inactive) | > 10 µM (inactive) | > 10 µM (inactive) | > 10 µM (inactive) | > 10 µM (inactive) | > 10 µM (inactive) | > 10 µM (inactive) | > 10 µM (inactive) | > 10 µM (inactive) | > 10 µM (inactive) | > 10 µM (inactive) | > 10 µM (inactive) | > 10 µM (inactive)
c1ccc(-c2cc(C3CO3)c3ccccc3n2)cc1 (stereo not given) | 29.6 µM (inactive) | 19.1 µM (inactive) | 25.9 µM (inactive) | 21.5 µM (inactive) | 20.7 µM (inactive) | 20 µM (inactive) | 16.7 µM (inactive) | 22 µM (inactive) | 18.6 µM (inactive) | 18.9 µM (inactive) | 17.9 µM (inactive) | 19.1 µM (inactive) | 16.5 µM (inactive) | 1.52 µM (inactive) | 20 µM (inactive) | 22.5 µM (inactive) | 16 µM (inactive) | 24.3 µM (inactive) | 16.2 µM (inactive)
C=CCN1C(=O)/C(=C/c2ccco2)N=C1SC/C=C/C | 45.9 µM (inactive) | > 100 µM (inactive) | 33.8 µM (inactive) | 60.5 µM (inactive) | 40.2 µM (inactive) | 24.1 µM (inactive) | 20.6 µM (inactive) | > 100 µM (inactive) | 26.5 µM (inactive) | 64.1 µM (inactive) | 35.6 µM (inactive) | 48.5 µM (inactive) | 27.5 µM (inactive) | 73.5 µM (inactive) | 21.6 µM (inactive) | 90.8 µM (inactive) | 49.2 µM (inactive) | 37.1 µM (inactive) | 18.6 µM (inactive)
COc1cc(/C=C/C=C2\CC/C(=C\C=C\c3ccc(O)c(OC)c3)C2=O)ccc1O | 0.305 µM (active) | > 100 µM (inactive) | > 100 µM (inactive) | > 60.1 µM (inactive) | > 100 µM (inactive) | > 100 µM (inactive) | > 87.9 µM (inactive) | > 100 µM (inactive) | > 100 µM (inactive) | > 100 µM (inactive) | > 100 µM (inactive) | > 100 µM (inactive) | > 100 µM (inactive) | > 82 µM (inactive) | > 100 µM (inactive) | > 100 µM (inactive) | > 100 µM (inactive) | > 100 µM (inactive) | > 100 µM (inactive)
COC(=O)CNC(=O)CCC(C)[C@H]1CCC2C3C(C[C@H](OC(C)=O)[C@@]21C)[C@@]1(C)CCC2(C[C@H]1C[C@H]3OC(C)=O)OOC1(CC[C@]3(C)C4C[C@H](OC(C)=O)[C@@]5(C)C(CC[C@@H]5C(C)CCC(=O)NCC(=O)OC)C4[C@H](OC(C)=O)C[C@@H]3C1)OO2 (stereo not given in full) | 0.244 µM (active) | 1.12 µM (active) | 1.64 µM (inactive) | 4.9 µM (inactive) | > 50 µM (inactive) | 0.746 µM (active) | 0.94 µM (active) | 2.03 µM (inactive) | 0.962 µM (active) | 1.37 µM (inactive) | 3.03 µM (inactive) | 1.14 µM (inactive) | 1.99 µM (inactive) | 0.828 µM (active) | 0.942 µM (active) | 2.15 µM (inactive) | 3.78 µM (inactive) | 8.75 µM (inactive) | 2.71 µM (inactive)
